Measured values: PubChem BioAssay (NCI)
Several values for one entry are separate records, joined by “and”; a condition that tells them apart may be missing. Equal values may be shown once.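 Each compound was tested at five concentrations against cells in 96-well plates for 48 hours. Abbreviation: GI50, concentration required for 50% inhibition of growth. TGI denotes the concentration required for complete inhibition of growth.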

Legend:
Test in all cases: DTP human tumour cell line panel, 48 h
COLO 205 colon = tested on: COLO 205 colon
NCI-H23 lung = tested on: NCI-H23 lung
LOX IMVI melanoma = tested on: LOX IMVI melanoma
IGROV1 ovarian = tested on: IGROV1 ovarian
CAKI-1 renal = tested on: CAKI-1 renal
SW-620 colon = tested on: SW-620 colon

Row | SMILES | TGI (COLO 205 colon) | TGI (NCI-H23 lung) | TGI (LOX IMVI melanoma) | TGI (IGROV1 ovarian) | TGI (CAKI-1 renal) [µM] | TGI (SW-620 colon) [µM] | GI50 (COLO 205 colon) [nM] | GI50 (NCI-H23 lung) [nM] | GI50 (LOX IMVI melanoma) [nM] | GI50 (IGROV1 ovarian) | GI50 (CAKI-1 renal) [µM] | GI50 (SW-620 colon) [nM]
1 | COC1=CC(=O)c2c(O)c3c(c(O)c2C1=O)OC1(Oc2c(cc4cc(C)oc(=O)c4c2O)CC1O)C3O (centres undefined) | > 100 µM | > 100 µM | > 100 µM | 66.5 µM | 53.9 | > 100 | – | – | – | – | – | –
2 | COc1cc(/C=C/C(=O)c2ccc(F)cc2)ccc1OCCCCOc1cc2c(cc1OC)C(=O)N1CCCC1C=N2 (centres undefined) | 9.19 µM | > 23.5 µM | 1.11 µM | 3.59 µM | 25.6 | – | 2110 | 1470 | 472 | 1830 nM | 1.12 | 481
3 | OCCNC(=S)Nc1ccc(-c2nc(N3C[C@H]4CC[C@@H](C3)O4)c3cccn3n2)cc1 | 1.69 µM | 16.7 µM | 7.65 µM | 0.15 µM | > 37.8 | 13.8 | 36.5 | 79.8 | 202 | 16.5 nM | 0.132 | 203
4 | O=C(CC(O)c1cccnc1)CC(O)c1cccnc1 (centres undefined) | 29 µM | 52 µM | 15.4 µM | 29.9 µM | 35.9 | 19.6 | – | – | – | – | – | –
5 | Nc1nc2ccccc2c2[nH]c3ccccc3c12 | 2.33 µM | 2.86 µM | 2.28 µM | 2.42 µM | – | 1.96 | 1070 | 1370 | 1050 | 806 nM | – | 384
6 | C[C@@]1([C@H](OC(=O)c2cccc3ccccc23)C(N)=O)CO1 | 14.4 µM | 5.65 µM | 1.62 µM | 3.75 µM | > 100 | – | 2990 | 1230 | 316 | 779 nM | 5.56 | 1100
7 | C[C@]12CC/C(=N\O)C[C@@H]1CC[C@@H]1[C@@H]2CC[C@]2(C)/C(=N/O)CC[C@@H]12 | > 100 µM | 80.2 µM | 50.7 µM | 62.6 µM | 86.2 | > 100 | 35800 | 45600 | 21300 | 17400 nM | 25.4 | 57100
8 | CC(C)(C)n1nc(C2CC2)cc1NC(=O)Nc1ccc(Cl)cc1 | > 100 µM | > 100 µM | > 100 µM | > 100 µM | > 100 | > 100 | – | – | – | – | – | –
9 | CN(Cc1ccccc1)c1ncnc2ccc(Br)cc12 | 38.2 µM | 28.9 µM | 29.2 µM | > 100 µM | 17.6 | – | 16200 | 11300 | 14700 | 8170 nM | 4.37 | –
10 | O=C1/C(=N/N=C(c2ccccc2)c2ccccc2)c2ccccc2-c2ccccc21 | > 100 µM | > 100 µM | > 100 µM | > 100 µM | > 100 | > 100 | – | – | – | – | – | –
11 | Cc1ccccc1NC(=O)N/C(N)=N/c1nc(C)c(C)s1 | – | > 100 µM | > 100 µM | > 100 µM | 97.1 | > 100 | 295 | 519 | 444 | 350 nM | 0.197 | 163
12 | O=C1c2cccc3c([N+](=O)[O-])ccc(c23)C(=O)N1CCCCl | > 10 µM | > 10 µM | 2.96 µM | 5 µM | > 10 | 5.95 | > 10000 | 5070 | 1470 | 1900 nM | > 10 | 2080
13 | COc1ccc(Nc2[nH]n(C3=Nc4ccccc4Sc4ccccc43)c(=O)c2C#N)cc1 | 3.35 µM | 6.64 µM | 4.27 µM | > 100 µM | 1.57 | > 100 | 1510 | 637 | 1370 | 2790 nM | 0.255 | 3180
14 | Cc1c(C)n(CC(O)CNC2CCCCC2C)c2ccccc12 (centres undefined) | 4.82 µM | 32.8 µM | 28 µM | 31.9 µM | 24.9 | 35 | 2210 | 16800 | 14800 | 16000 nM | 12.4 | 17900
15 | O=C(NCCN1CCOCC1)Nc1nc2ccc(Sc3nnc4ccc(-c5ccc(F)cc5)nn34)cc2s1 | > 33.3 µM | > 100 µM | > 42.3 µM | > 100 µM | > 100 | > 100 | 4530 | > 100000 | – | > 100000 nM | – | –
16 | Nc1ncnc2c1ncn2C1OC(CO)CC1O (centres undefined) | > 100 µM | > 100 µM | 70.8 µM | > 100 µM | > 100 | > 100 | – | – | – | – | – | –
17 | C=CC1CC12C(=O)C1OC2(C)C2C(=O)c3c(O)cccc3C(=O)C12 (centres undefined) | > 100 µM | 85.6 µM | – | – | 31.8 | – | 31700 | 26900 | – | – | 13.1 | –
18 | COc1ccc(-c2cnc(SCC(=O)c3c(C)n(C)n(-c4ccccc4)c3=O)n2-c2ccc(OC)cc2)cc1 | > 50 µM | > 50 µM | > 50 µM | > 50 µM | > 50 | > 50 | > 50000 | > 50000 | 46500 | > 50000 nM | > 50 | > 50000
19 | CC(C)C[C@H](NC(=O)[C@H](Cc1ccccc1)NC(=O)c1cnccn1)B(O)O | 1.31 µM and 0.217 µM | 0.183 µM and 0.0197 µM | < 0.0129 µM and 0.00413 µM | 0.137 µM and 0.102 µM and 0.15 µM | – | – | 2.84 | 1.75 | 1.35 | 13 nM and 3.85 nM | 0.00148 | 1.21
20 | O=C(/C=C/c1ccccc1)Nc1ncc(Cc2ccccc2)s1 | 2.13 µM | > 49.1 µM | > 23.2 µM | > 64.5 µM | > 50.2 | > 100 | 288 | 562 | 139 | 491 nM | 0.0902 | 144
21 | CS(=O)(=O)c1nccc(-c2c(-c3cccc(OCc4ccccc4)c3)nc3sccn23)n1 | > 100 µM | > 100 µM | > 100 µM | > 100 µM | > 100 | > 100 | 25300 | 12800 | 5130 | 10300 nM | 4.58 | 4670
